Read-outs that look alike come from different tables or passages of the source.
Assays:
human TRPV3 = target: T1, human TRPV3 (Homo sapiens, UniProt Q8NET8); assay: In vitro antagonism of recombinant human TRPV3 activation (FLIPR Tetra calcium assay); format: cell-based; settings: HEK293 cells stably expressing human TRPV3, agonist 2-APB at 80 μM
T1 construct: expressed in transfected cells
T1 sequence (Q8NET8 1-790): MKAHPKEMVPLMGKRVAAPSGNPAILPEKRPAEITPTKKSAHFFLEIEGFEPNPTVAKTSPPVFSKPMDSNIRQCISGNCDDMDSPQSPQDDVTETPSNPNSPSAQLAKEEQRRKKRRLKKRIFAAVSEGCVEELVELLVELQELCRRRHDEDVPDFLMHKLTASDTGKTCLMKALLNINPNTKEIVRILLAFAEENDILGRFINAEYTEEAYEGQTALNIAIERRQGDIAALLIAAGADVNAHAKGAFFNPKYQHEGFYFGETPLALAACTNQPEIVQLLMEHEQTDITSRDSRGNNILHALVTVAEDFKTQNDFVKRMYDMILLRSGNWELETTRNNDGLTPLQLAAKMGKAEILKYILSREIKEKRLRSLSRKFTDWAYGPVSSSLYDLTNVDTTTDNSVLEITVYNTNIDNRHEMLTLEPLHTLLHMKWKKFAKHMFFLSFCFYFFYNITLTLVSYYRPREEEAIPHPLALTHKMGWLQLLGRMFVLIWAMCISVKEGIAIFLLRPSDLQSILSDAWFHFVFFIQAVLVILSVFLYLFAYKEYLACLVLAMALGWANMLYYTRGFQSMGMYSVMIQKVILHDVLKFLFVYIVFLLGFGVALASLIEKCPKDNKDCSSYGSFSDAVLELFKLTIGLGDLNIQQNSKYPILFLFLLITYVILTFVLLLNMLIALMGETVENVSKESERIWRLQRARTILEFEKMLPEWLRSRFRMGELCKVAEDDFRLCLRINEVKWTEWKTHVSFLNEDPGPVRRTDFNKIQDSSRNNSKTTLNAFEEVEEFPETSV
Outline: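 Calcium flux read over a 10 min run: compound added at 10 s to Calcium-4-loaded human TRPV3-HEK293 cells, agonist 2-APB (80 μM, its EC80) after 3 min. IC50 derived from peak-minus-baseline signal as percentage of uninhibited 2-APB response, typically averaged over at least two runs.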

[1] = In vitro human microsomal stability assay; format: in vitro ADME
Outline: (§1)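 Metabolic stability was followed in NADPH-supplemented incubations at 37° C., using microsomes prepared from human liver or from Sprague-Dawley rat liver.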

[2] = In vitro rat microsomal stability assay; format: in vitro ADME, rat (Sprague-Dawley)
Outline: as §1

[3] = actual measured value shown parenthetically, in most cases average of at least two runs, read-out: IC50
[4] = human, microsomes, 0.5 h, 0.5 μM, pH 7.4
[5] = Sprague-Dawley, rat, microsomes, 0.5 h, 0.5 μM, pH 7.4
[6] = reported range, read-out: IC50 (range class)

Structure (SMILES)	IC50 (human TRPV3; [3]) [µM]	HUMAN MICROSOMAL STABILITY (% REMAINING AFTER 30 MINUTES) [1, 4] [%]	RAT MICROSOMAL STABILITY (% REMAINING AFTER 30 MINUTES) [2, 5] [%]	IC50 (human TRPV3; [6]) [µM]	HUMAN MICROSOMAL STABILITY (% REMAINING AFTER 30 MINUTES) ([1]; human liver microsomes, 0.5 μM substrate, 0.25 mg/mL microsomal protein, pH 7.4, 37° C., NADPH, 30 minutes) [%]	RAT MICROSOMAL STABILITY (% REMAINING AFTER 30 MINUTES) ([2]; rat liver microsomes (Sprague-Dawley), 0.5 μM substrate, 0.25 mg/mL microsomal protein, pH 7.4, 37° C., NADPH, 30 minutes) [%]
ON=C1CC(c2ccc(OC(F)(F)F)cc2)([C@H](O)c2ccccn2)C1 (stereo partly drawn) [Example 248, (S)-{3-(hydroxyimino)-1-[4-(trifluoromethoxy)phenyl]cyclobutyl}(pyridin-2-yl)methanol]	1.17	70	29			
O[C@H](c1ccccn1)C1(c2ccc(Cl)c(Cl)c2)CCC1 [Example 26, (S)-[1-(3,4-dichlorophenyl)cyclobutyl](pyridin-2-yl)methanol]	0.31	6.3	1.0			
OC(c1ccccn1)C1(c2ccc(C(F)(F)F)cc2)CCCO1 (single isomer, unassigned) [Example 88, (anti)-pyridin-2-yl{2-[4-(trifluoromethyl)phenyl]tetrahydrofuran-2-yl}methanol]	0.37	38	7.0			
O[C@H](c1ccccn1)[C@]1(c2cccc(C(F)(F)F)c2)C[C@H](O)C1 [Example 259, cis-3-[(S)-hydroxy(pyridin-2-yl)methyl]-3-[3-(trifluoromethyl)phenyl]-cyclobutanol]	0.47	76	73			
Cc1ccc(C2(C(O)c3ccccn3)CCC2)cc1 (centres unmarked) [Example 9, [1-(4-methylphenyl)cyclobutyl](pyridin-2-yl)methanol]	1.51	0.12	0.18			
OC(C1CCCc2cccnc21)C1(c2cccc(C(F)(F)F)c2)CCC1 (single isomer, unassigned) [Example 180, (syn)-5,6,7,8-tetrahydroquinolin-8-yl{1-[3-(trifluoromethyl)phenyl]-cyclobutyl}methanol]	> 20	<0.01	<0.01	> 20		
OC(c1ccccn1)C1(C2=CCC(F)(F)CC2)CCC1 (centres unmarked) [Example 260, [1-(4,4-difluorocyclohex-1-en-1-yl)cyclobutyl](pyridin-2-yl)methanol]	5.32	12	<0.01			
OC(c1ccccn1)C1(c2cc(C(F)(F)F)cc(C(F)(F)F)c2)CCC1 (centres unmarked) [Example 13, {1-[3,5-bis(trifluoromethyl)phenyl]cyclobutyl}(pyridin-2-yl)methanol]	0.6	7.4	19			
OC(c1ccccn1)C1(C(c2ccccc2)C(F)(F)F)CCC1 (centres unmarked) [Example 58, pyridin-2-yl[1-(2,2,2-trifluoro-1-phenylethyl)cyclobutyl]methanol]	3.63	36	33			
CN1CCC(c2ccc(C(F)(F)F)cc2)(C(O)c2ccccn2)CC1 (centres unmarked) [Example 143, {1-methyl-4-[4-(trifluoromethyl)phenyl]piperidin-4-yl}(pyridin-2-yl)-methanol]	> 20			> 20	>85	80
CC1(O)CC(c2cc(C(F)(F)F)ccn2)(C(O)c2ccccn2)C1 (centres unmarked) [Example 286]	1.47	>85	70			
CC(C)(C)OC(=O)N1CCC(c2ccc(C(F)(F)F)cc2)(C(O)c2ccccn2)CC1 (centres unmarked) [Example 156, tert-butyl 4-[hydroxy(pyridin-2-yl)methyl]-4-[4-(trifluoromethyl)phenyl]-piperidine-1-carboxylate]	> 20	26	0.08	> 20		
Cc1ccc(CC2(C(O)c3ccccn3)CCC2)cc1 (centres unmarked) [Example 52, [1-(4-methylbenzyl)cyclobutyl](pyridin-2-yl)methanol]	5.02	1.7	0.05			
CC(C)(C)OC(=O)N1CCC(c2ccc(OC(F)(F)F)cc2)(C(O)c2ccccn2)CC1 (centres unmarked) [Example 157, tert-butyl 4-[hydroxy(pyridin-2-yl)methyl]-4-[4-(trifluoromethoxy)phenyl]-piperidine-1-carboxylate]	> 20	28	0.93	> 20		
OC(c1ccccn1)C1(c2cc(C(F)(F)F)ccn2)CCC1 (centres unmarked) [Example 116, pyridin-2-yl{1-[4-(trifluoromethyl)pyridin-2-yl]cyclobutyl}methanol]	0.75	37	25			
OC(C1CCCc2cccnc21)C1(c2ccccc2OC(F)(F)F)CCC1 (stereo not drawn) [Example 191, (anti)-5,6,7,8-tetrahydroquinolin-8-yl{1-[2-(trifluoromethoxy)phenyl]-cyclobutyl}methanol]	> 7.4	<0.01	<0.01			
OC(C1CCc2cccnc21)C1(c2ccc(C(F)(F)F)cc2)CCC1 (stereo not drawn) [Example 174, (syn)-6,7-dihydro-5H-cyclopenta[b]pyridin-7-yl{1-[4-(trifluoromethyl)-phenyl]cyclobutyl}methanol]	> 20	26	<0.01	> 20		
Cn1c(C2(C(O)c3ccccn3)CCC2)nc2ccccc21 (centres unmarked) [Example 275, [1-(1-methyl-1H-benzimidazol-2-yl)cyclobutyl](pyridin-2-yl)methanol]	19	67	5.7			
OC(C1CCc2cccnc21)C1(c2ccc(Cl)c(Cl)c2)CCC1 (stereo not drawn) [Example 167, (anti)-[1-(3,4-dichlorophenyl)cyclobutyl][6,7-dihydro-5H-cyclopenta[b]-pyridin-7-yl]methanol]	> 20	9.5	<0.01	> 20		
OC(C1CCc2cccnc21)C1(c2ccc(F)c(F)c2)CCC1 (stereo not drawn) [Example 171, (anti)-[1-(3,4-difluorophenyl)cyclobutyl][6,7-dihydro-5H-cyclopenta[b]-pyridin-7-yl]methanol]	> 20	2.7	<0.01	> 20		
OC(C1CCc2cccnc21)C1(c2ccccc2C(F)(F)F)CCC1 (stereo not drawn) [Example 197, (anti)-6,7-dihydro-5H-cyclopenta[b]pyridin-7-yl{1-[2-(trifluoromethyl)-phenyl]cyclobutyl}methanol]	> 20	0.26	<0.01	> 20		
